Measured values published in PMC8409973, “Synthesis, antiproliferative and antitrypanosomal activities, and DNA binding of novel 6-amidino-2-arylbenzothiazoles” (Journal of Enzyme Inhibition and Medicinal Chemistry, 2021).
Entries after “also recorded” stand apart in the source; their conditions may differ. Like-named read-outs stand apart in the source and are kept apart here.

Experiments:
[1] = system: CFPAC-1 (pancreatic adenocarcinoma); test: Proliferation assay (MTT, 72 h) on CFPAC-1; type: cell-based; details: Homo sapiens, CFPAC-1, 72 h
Procedure: (§1) Human cell lines SW620 (colorectal adenocarcinoma, metastatic), MCF-7 (human breast adenocarcinoma), CFPAC-1 (pancreatic adenocarcinoma), HeLa (cervical carcinoma), and HFF-1 (human foreskin fibroblasts) were obtained from the American Type Culture Collection (ATCC). Cells were cultured in a humidified atmosphere at 37 °C with 5% CO2. As a growth medium, Dulbecco’s modified Eagle medium (DMEM) was used with the addition of foetal bovine serum (10%), L-glutamine (2 mM), and antibiotics: streptomycin ([…]) and penicillin (100 U/ml).
(§2) Cells were seeded onto 96-well microtiter plates at a seeding density of 3000 cells/well for carcinoma cell lines, and 5000 cells/well for normal human fibroblasts. The next day, cells were treated with test agents at five different concentrations (0.01–100 µM) and further incubated for 72 h. […] 5-Fluorouracil (5-FU, 0.384 M fluorouracilum, Pliva 500 mg/10 ml) dissolved in physiological solution was used as a positive control. Following 72 h incubation, the MTT assay was performed and measured absorbances were transformed into a percentage of cell growth as described previously. Results were obtained from three independent experiments. IC50 values were calculated using linear regression analysis (FORECAST option taking into account the concentration range of two experimental points above and below IC50).

[2] = system: HeLa (cervical carcinoma); test: Proliferation assay (MTT, 72 h) on HeLa; type: cell-based; details: Homo sapiens
Procedure: as §1, §2

[3] = system: WI-38 fibroblast cell line; test: Growth inhibition of WI-38 fibroblasts (control substance); type: cell-based; details: Homo sapiens; WI-38 fibroblast cell line (footnote c)
[4] = system: SW620 (colorectal adenocarcinoma, metastatic); test: Proliferation assay (MTT, 72 h) on SW620; type: cell-based; details: Homo sapiens, SW-620, SW620, 72 h
Procedure: as §1, §2

[5] = system: MCF-7 (human breast adenocarcinoma); test: Proliferation assay (MTT, 72 h) on MCF-7; type: cell-based; details: MCF7, MCF-7, 72 h
Procedure: as §1, §2

[6] = system: HFF-1 (human foreskin fibroblasts); test: Proliferation assay (MTT, 72 h) on normal fibroblasts HFF-1; type: cell-based; details: HFF-1 normal fibroblasts
Procedure: as §1, §2

ctDNA [7] = test: CD titration of ctDNA; type: binding, calf; details: for induced CD (ICD) signal with ctDNA: CD titration, pH 7.0, λ > 300 nm; for binding mode to ctDNA: concluded from ICD, ΔTm and binding constants
Procedure: (§3) These solutions were used for measurements in an aqueous buffer (pH = 7, sodium cacodylate buffer, I = 0.05 mol dm^−3). Polynucleotides were purchased as noted: poly (dAdT)2 and calf thymus ctDNA (Sigma-Aldrich). Polynucleotides were dissolved in Na-cacodylate buffer, I = 0.05 mol dm^−3, pH = 7. The calf thymus ctDNA was additionally sonicated and filtered through a […]. Polynucleotide concentration was determined spectroscopically[50]^,[51] as the concentration of phosphates.
CD spectra were recorded on a JASCO J815 spectrophotometer in 1 cm path quartz cuvettes. CD parameters: range = 500–220 nm, data pitch = 2, standard sensitivity, scanning speed = 200 nm/min, accumulation = 3–5. Titrations were performed at 25 °C and pH = 7 (I = 0.05 mol dm^−3, sodium cacodylate buffer). CD experiments were done by adding portions of the compound stock solution into the polynucleotide solution.

poly (dAdT)2 = test: Thermal denaturation of p(dAdT)2; type: binding; details: r = [compound]/[polynucleotide] = 0.3, pH 7.0; error ±0.5 °C
Procedure: as §3
(§4) The UV/Vis spectra were recorded on a Varian Cary 100 Bio spectrophotometer using 1 cm path quartz cuvettes. Calibration experiments were performed at 25 °C and pH = 7 (I = 0.05 mol dm^−3, sodium cacodylate buffer). Absorption maxima and corresponding molar extinction coefficients (ε) of benzothiazole derivatives are given in Table S1 (Supplementary material). Thermal melting curves for DNA and their complexes with studied compounds were determined as previously described by following the absorption change at 260 nm as a function of temperature. The absorbance of the ligands was subtracted from every curve and the absorbance scale was normalised. Tm values are the midpoints of the transition curves determined from the maximum of the first derivative and checked graphically by the tangent method. The ΔTm values were calculated by subtracting Tm of the free nucleic acid from Tm of the complex. Every ΔTm value reported here was the average of at least two measurements. The error in ΔTm is ±0.5 °C.

[8] = system: Bloodstream form T. b. brucei (strain 221); test: Antitrypanosomal screening (resazurin); type: cell-based; details: Trypanosoma brucei; for IC90: concentration that inhibited growth by 90%, mean ± SEM; for IC50: mean of triplicate ± SEM
Procedure: Resazurin (20 μl at 0.125 mg ml^−1) was added after 48 h, the plates were incubated for a further 16 h, and then read in a Spectramax plate reader, and data analysed using GraphPad Prism. Each drug was tested in triplicate.

ctDNA [9] = test: Thermal denaturation of ctDNA; type: binding, calf; details: r = [compound]/[polynucleotide] = 0.3, pH 7.0; error ±0.5 °C
Procedure: as §3, §4

[10] = system: L6 cells (a rat myoblast line); test: L6 cell proliferation (cytotoxicity, resazurin); type: cell-based; details: 144 h; rat myoblast L6, 6 days
calf thymus ctDNA = test: Fluorimetric titration with ctDNA; type: binding; details: for I/I0: fluorescence intensity of complex / starting intensity, ctDNA, pH 7.0; for LogKs: fluorescence titration with ctDNA, Scatchard, fixed n = 0.6, pH 7.0, sodium cacodylate I = 0.05 mol dm−3
Procedure: The calf thymus ctDNA was additionally sonicated and filtered through a […]. Polynucleotide concentration was determined spectroscopically[50]^,[51] as the concentration of phosphates. Fluorescence spectra were recorded on a Varian Cary Eclipse spectrophotometer at 25 °C using appropriate 1 cm path quartz cuvettes. […] In fluorimetric experiments, an excitation wavelength of λexc ≥300 nm was used to avoid the inner filter effect caused due to increasing absorbance of the polynucleotide. Emissions were determined in the range λem = 350–650 nm. Values for Ks were obtained by processing titration data using the Scatchard equation[52].

[11] = system: Bloodstream form T. b. brucei (strain 221); details: read-out: T. brucei IC50; reference drug; ref Wilkinson et al.[54]; cited from earlier work

SMILES	IC50 [1] [µM]	IC50 [2] [µM]	IC50 [3] [µM]	IC50 [4] [µM]	IC50 [5] [µM]	IC50 [6] [µM]	induced CD (ICD) signal with ctDNA (ctDNA [7])	binding mode to ctDNA (ctDNA [7])	ΔTm p(dAdT)2 (poly (dAdT)2) [°C]	IC90 [8] [µM]	IC50 [8] [µM]	ΔTm ctDNA (ctDNA [9]) [°C]	IC50 [10] [µM]	I/I0 (calf thymus ctDNA)	LogKs (calf thymus ctDNA)	melting point [°C]	IC50 [11] [µM]
O=c1[nH]cc(F)c(=O)[nH]1 [5-FU, 5-Fluorouracil, reference compound]	6.45 ± 0.66	47.5 ± 1.93	0.94	6.4 ± 0.22	0.09 ± 0.01	–	–	–	–	–	–	–	–	–	–	–	–
N=C(N)c1ccc2nc(-c3ccc(OCc4cn(-c5ccc(Cl)cc5)nn4)cc3)sc2c1 [10b]	–	1.24 ± 0.6	–	3.05 ± 0.82	0.87 ± 0.18	0.17 ± 0.13	small negative ICD signal	intercalation	2.3	0.81 ± 0.04	0.54 ± 0.13	2.7	1.46 ± 0.45	0.12	6.6	–	–
CS(=O)(=O)O.c1ccc(-n2cc(COc3nc4ccc(C5=NCCN5)cc4s3)nn2)cc1 [11a, 6-(4,5-Dihydro-1H-imidazol-3-ium-2-yl)-2-[(1-phenyl-1H-1,2,3-triazol-4-yl)methoxy] benzothiazole methanesulfonate]	0.45 ± 0.01	0.57 ± 0.19	–	0.46 ± 0.03	0.49 ± 0.01	0.26 ± 0.02	bisignate signal with maxima at 317 and 360 nm	dimer within the minor groove; also recorded: minor groove binding	4.1	0.28 ± 0.03	0.23 ± 0.02	2.1	< 0.2	0.18	6.8	270 to 274	–
CS(=O)(=O)O.Clc1ccc(-n2cc(COc3nc4ccc(C5=NCCN5)cc4s3)nn2)cc1 [11b, 6-(4,5-Dihydro-1H-imidazol-3-ium-2-yl)-2-{[1-(4-chlorophenyl)-1H-1,2,3-triazol-4-yl]methoxy}benzothiazole methanesulfonate]	3.09 ± 0.19	2.61 ± 0.42	–	2.84 ± 0.19	3.12 ± 0.36	0.17 ± 0.09	small negative ICD signal	intercalation	1.1	0.12 ± 0.03	0.09 ± 0.02	1.2	< 2	0.21	6.6	263 to 266	–
CS(=O)(=O)O.Clc1ccc(-n2cc(COc3nc4ccc(C5=NCCCN5)cc4s3)nn2)cc1 [12b, 6-(3,4,5,6-Tetrahydropyrimidin-1-ium-2-yl)-2-[(1-(4-Chlorophenyl)-1H-1,2,3-triazol-4-yl]methoxy)benzothiazole methanesulfonate]	3.55 ± 0.81	2.81 ± 0.58	–	0.66 ± 0.21	3.91 ± 1.19	0.24 ± 0.09	positive induced CD spectra	minor groove binding mode	–	1.19 ± 0.02	0.91 ± 0.08	–	2.32 ± 0.18	0.31	7.0	220 to 224	–
CS(=O)(=O)O.c1ccc(-n2cc(-c3nc4ccc(C5=NCCN5)cc4s3)nn2)cc1 [14a, 6-(4,5-Dihydro-1H-imidazol-3-ium-2-yl)-2-(1-phenyl-1H-1,2,3-triazole-4-yl)benzothiazole methanesulfonate]	0.45 ± 0.19	0.67 ± 0.06	–	0.25 ± 0.16	0.52 ± 0.26	0.12 ± 0.01	–	–	2.6	0.53 ± 0.03	0.4 ± 0.02	0.7	< 2	0.54	5.6	–	–
CS(=O)(=O)O.Clc1ccc(-n2cc(-c3nc4ccc(C5=NCCN5)cc4s3)nn2)cc1 [14b, 6-(4,5-Dihydro-1H-imidazol-3-ium-2-yl)-2-[1-(4-chlorophenyl)-1H-1,2,3-triazole-4-yl]benzothiazole methanesulfonate]	2.42 ± 0.06	0.48 ± 0.01	–	0.35 ± 0.13	1.77 ± 0.18	0.36 ± 0.18	–	–	3.6	0.48 ± 0.02	0.32 ± 0.06	2.2	< 2	0.45	5.0	> 300	–
COc1ccc(-n2cc(-c3nc4ccc(C5=NCCN5)cc4s3)nn2)cc1.CS(=O)(=O)O [14c, 6-(4,5-Dihydro-1H-imidazol-3-ium-2-yl)-2-[1-(4-methoxyphenyl)-1H-1,2,3-triazole-4-yl]benzothiazole methanesulfonate]	0.48 ± 0.03	0.38 ± 0.1	–	0.36 ± 0.09	0.54 ± 0.01	0.18 ± 0.01	–	–	4.5	0.49 ± 0.01	0.31 ± 0.02	0	< 2	–	–	> 300	–
CS(=O)(=O)O.Clc1ccc(-n2cc(-c3nc4ccc(C5=NCCCN5)cc4s3)nn2)cc1 [15b, 6-(3,4,5,6-Tetrahydropyrimidin-1-ium-2-yl)-2-[1-(4-chlorophenyl)-1H-1,2,3-triazole-4-yl]benzothiazole methanesulfonate]	0.71 ± 0.17	2.27 ± 0.08	–	0.89 ± 0.31	2.1 ± 1.09	0.74 ± 0.05	positive induced CD spectra	minor groove binding mode	5.4	3.84 ± 0.65	1.12 ± 0.23	0	7.69 ± 0.16	0.35	5.4	288 to 293	–
CC1CS(=O)(=O)CCN1/N=C/c1ccc([N+](=O)[O-])o1 (centres unmarked) [Nifurtimox]	–	–	–	–	–	–	–	–	–	–	–	–	–	–	–	–	2 ± 0.24
